The structures appear in SMILES notation.

Holding throughout (experiment): BOCILLIN FL fluorescence inhibition, SDS-PAGE
Common to all, as to format: binding
Details in all cases: read-out: FIC50

In one assay the target is PbpB (Rv2163c) (Mycobacterium tuberculosis, UniProt L0T911). The source says: BOCILLIN FL fluorescence inhibition, SDS-PAGE on PbpB (Rv2163c)
In another assay the target is DacB (Rv3627c) (Mycobacterium tuberculosis, UniProt O06380). From the text: BOCILLIN FL fluorescence inhibition, SDS-PAGE on DacB (Rv3627c)
Chain of DacB (Rv3627c) (O06380 35-461): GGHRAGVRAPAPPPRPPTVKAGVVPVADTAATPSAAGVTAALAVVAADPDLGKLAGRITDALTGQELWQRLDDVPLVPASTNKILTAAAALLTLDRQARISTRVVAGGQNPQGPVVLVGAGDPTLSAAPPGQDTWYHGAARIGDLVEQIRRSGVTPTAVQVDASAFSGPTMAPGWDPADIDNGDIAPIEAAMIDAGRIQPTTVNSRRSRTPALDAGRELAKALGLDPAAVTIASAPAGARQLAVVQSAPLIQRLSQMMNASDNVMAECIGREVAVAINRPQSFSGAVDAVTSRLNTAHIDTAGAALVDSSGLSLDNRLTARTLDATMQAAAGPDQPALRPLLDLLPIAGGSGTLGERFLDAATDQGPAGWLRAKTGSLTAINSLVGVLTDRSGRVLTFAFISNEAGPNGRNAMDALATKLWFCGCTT
Another assay has as its target Rv1730c (Mycobacterium tuberculosis, UniProt P71988). From the text: BOCILLIN FL fluorescence inhibition, SDS-PAGE on Rv1730c
Another assay addresses DacB1 (Rv3330) (Mycobacterium tuberculosis, UniProt O53380). The source says: BOCILLIN FL fluorescence inhibition, SDS-PAGE on DacB1 (Rv3330)
A further assay concerns the target PbpA (Rv0016c) (Mycobacterium tuberculosis, UniProt P9WKD1). From the text:
BOCILLIN FL fluorescence inhibition, SDS-PAGE on PbpA (Rv0016c)

The target of a further assay is PonA1 (Rv0050) (Mycobacterium tuberculosis, UniProt P71707). The source says: BOCILLIN FL fluorescence inhibition, SDS-PAGE on PonA1 (Rv0050)
Chain of PonA1 (Rv0050) (P71707 160-820): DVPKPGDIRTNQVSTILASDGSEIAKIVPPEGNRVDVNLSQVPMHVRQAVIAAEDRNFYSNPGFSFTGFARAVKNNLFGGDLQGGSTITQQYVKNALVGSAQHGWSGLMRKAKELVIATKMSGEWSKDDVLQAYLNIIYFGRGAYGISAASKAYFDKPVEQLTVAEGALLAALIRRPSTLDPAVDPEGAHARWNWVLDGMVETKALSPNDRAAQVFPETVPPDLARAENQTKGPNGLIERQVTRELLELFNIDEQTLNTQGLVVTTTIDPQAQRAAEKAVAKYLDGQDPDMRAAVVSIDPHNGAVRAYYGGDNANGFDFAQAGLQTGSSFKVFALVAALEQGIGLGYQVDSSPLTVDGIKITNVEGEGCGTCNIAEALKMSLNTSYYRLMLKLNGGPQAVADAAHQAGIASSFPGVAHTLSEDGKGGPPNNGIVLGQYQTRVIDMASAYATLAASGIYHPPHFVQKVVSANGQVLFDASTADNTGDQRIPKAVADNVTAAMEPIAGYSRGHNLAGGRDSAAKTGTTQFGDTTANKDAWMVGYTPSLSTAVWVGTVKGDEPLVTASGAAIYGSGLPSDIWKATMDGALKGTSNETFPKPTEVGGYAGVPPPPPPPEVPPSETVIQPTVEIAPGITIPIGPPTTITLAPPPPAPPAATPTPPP
The next assay addresses DacB2 (Rv2911) (Mycobacterium tuberculosis, UniProt I6Y204). The source says:
BOCILLIN FL fluorescence inhibition, SDS-PAGE on DacB2 (Rv2911)

For the next assay, the target named is PonA2 (Rv3682) (Mycobacterium tuberculosis, UniProt I6YGX2). The source says: BOCILLIN FL fluorescence inhibition, SDS-PAGE on PonA2 (Rv3682)
Chain of PonA2 (Rv3682) (I6YGX2 entry or part of it): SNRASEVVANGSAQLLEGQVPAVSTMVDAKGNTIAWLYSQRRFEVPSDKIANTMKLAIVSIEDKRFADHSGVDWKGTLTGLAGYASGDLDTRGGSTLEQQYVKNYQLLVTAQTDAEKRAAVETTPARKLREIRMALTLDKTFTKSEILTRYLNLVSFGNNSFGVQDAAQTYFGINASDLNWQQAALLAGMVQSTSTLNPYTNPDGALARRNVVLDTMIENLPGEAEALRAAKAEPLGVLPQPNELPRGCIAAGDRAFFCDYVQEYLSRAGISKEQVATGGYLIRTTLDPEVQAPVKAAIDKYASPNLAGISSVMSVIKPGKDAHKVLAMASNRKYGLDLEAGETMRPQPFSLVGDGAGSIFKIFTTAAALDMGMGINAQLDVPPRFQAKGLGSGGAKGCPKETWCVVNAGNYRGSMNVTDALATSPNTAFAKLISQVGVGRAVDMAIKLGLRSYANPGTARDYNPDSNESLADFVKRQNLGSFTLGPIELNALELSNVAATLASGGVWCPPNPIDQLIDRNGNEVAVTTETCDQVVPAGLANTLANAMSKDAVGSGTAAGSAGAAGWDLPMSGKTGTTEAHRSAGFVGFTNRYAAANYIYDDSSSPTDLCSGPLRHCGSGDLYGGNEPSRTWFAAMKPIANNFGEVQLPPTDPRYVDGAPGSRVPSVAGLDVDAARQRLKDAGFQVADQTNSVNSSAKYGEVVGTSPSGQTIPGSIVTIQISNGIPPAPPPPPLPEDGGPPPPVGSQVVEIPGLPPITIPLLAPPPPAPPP

Chain of Rv1730c (P71988 entry or part of it): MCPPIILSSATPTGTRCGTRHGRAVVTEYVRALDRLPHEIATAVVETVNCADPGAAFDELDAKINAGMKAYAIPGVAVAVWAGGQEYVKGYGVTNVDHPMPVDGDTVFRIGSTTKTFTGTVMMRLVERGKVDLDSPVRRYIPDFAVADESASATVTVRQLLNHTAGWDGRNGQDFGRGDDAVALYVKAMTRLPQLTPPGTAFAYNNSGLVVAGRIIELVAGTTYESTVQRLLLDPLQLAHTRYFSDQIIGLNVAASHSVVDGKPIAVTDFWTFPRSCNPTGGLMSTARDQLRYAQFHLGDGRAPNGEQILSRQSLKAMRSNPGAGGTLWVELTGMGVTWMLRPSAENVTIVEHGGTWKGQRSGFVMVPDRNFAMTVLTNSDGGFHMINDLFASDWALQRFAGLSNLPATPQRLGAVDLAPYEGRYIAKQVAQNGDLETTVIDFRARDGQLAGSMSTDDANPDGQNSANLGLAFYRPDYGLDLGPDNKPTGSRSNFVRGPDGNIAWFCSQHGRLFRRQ
Chain of DacB1 (Rv3330) (O53380 33-374): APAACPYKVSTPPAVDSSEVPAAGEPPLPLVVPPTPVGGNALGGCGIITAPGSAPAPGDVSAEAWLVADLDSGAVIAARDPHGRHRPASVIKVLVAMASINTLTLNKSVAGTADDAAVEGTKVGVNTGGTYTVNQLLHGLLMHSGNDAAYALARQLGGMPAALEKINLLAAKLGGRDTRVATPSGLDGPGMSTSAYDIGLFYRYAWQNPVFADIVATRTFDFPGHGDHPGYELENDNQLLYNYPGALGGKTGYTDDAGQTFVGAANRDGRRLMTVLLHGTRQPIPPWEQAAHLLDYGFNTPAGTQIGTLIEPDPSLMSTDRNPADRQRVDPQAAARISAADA
Chain of PbpA (Rv0016c) (P9WKD1 29-491): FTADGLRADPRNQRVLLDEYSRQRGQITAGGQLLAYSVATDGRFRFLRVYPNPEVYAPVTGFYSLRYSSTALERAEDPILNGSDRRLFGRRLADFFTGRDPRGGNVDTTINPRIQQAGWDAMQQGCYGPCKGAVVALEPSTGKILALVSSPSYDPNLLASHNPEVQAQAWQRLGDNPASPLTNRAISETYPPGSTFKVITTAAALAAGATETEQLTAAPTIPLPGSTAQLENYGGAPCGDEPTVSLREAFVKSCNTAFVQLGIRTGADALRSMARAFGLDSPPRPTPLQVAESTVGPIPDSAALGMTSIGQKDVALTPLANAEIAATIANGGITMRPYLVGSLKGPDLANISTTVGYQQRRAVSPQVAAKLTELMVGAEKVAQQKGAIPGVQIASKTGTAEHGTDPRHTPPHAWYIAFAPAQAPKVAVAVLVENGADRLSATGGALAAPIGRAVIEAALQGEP
Chain of PbpB (Rv2163c) (L0T911 112-679): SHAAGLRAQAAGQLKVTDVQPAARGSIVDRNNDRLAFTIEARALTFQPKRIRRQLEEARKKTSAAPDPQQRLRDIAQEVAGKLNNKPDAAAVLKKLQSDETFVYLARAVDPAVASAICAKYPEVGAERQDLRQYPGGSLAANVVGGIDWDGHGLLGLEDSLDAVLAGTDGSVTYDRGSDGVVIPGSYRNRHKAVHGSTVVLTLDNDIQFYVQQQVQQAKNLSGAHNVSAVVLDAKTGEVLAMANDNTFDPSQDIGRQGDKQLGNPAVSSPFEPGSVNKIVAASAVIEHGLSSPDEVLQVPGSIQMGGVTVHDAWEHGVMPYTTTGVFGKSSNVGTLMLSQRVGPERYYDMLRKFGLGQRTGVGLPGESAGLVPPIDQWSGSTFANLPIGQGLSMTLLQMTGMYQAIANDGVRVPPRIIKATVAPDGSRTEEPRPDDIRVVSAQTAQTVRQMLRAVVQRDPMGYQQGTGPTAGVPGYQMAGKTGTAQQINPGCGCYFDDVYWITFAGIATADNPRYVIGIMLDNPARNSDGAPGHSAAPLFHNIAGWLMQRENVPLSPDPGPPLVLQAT
Chain of DacB2 (Rv2911) (I6Y204 23-291): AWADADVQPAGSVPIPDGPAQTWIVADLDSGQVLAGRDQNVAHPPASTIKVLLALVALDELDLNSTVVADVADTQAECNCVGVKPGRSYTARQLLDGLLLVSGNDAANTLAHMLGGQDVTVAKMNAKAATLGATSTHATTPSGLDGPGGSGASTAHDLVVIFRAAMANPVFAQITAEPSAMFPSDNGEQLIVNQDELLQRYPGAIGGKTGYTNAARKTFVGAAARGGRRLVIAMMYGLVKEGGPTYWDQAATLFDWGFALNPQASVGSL

As to `CC1(C)S[C@@H]2[C@H](NC(=O)[C@H](N)c3ccccc3)C(=O)N2[C@H]1C(=O)O` [Ampicillin], the IC50 on PbpB (Rv2163c) was 1.5 ± 0.4 µM.
`C[C@@H](O)[C@H]1C(=O)N2C(C(=O)[O-])=C(SC3Cn4cnc[n+]4C3)[C@H](C)[C@H]12` (some centres unmarked) [Biapenem]: the values for the IC50 on DacB (Rv3627c), on Rv1730c and at DacB1 (Rv3330) were 3.5 ± 0.2 µM, 569 ± 72.1 µM and 18.1 ± 3 µM, respectively.
`C=CC1=C(C(=O)O)N2C(=O)[C@@H](NC(=O)/C(=N\O)c3csc(N)n3)[C@H]2SC1` [Cefdinir]: the IC50 on PbpA (Rv0016c) was determined as 13.8 ± 6.9 µM.
Turning to `CO[C@@]1(NC(=O)Cc2cccs2)C(=O)N2C(C(=O)O)=C(COC(N)=O)CS[C@@H]21` [Cefoxitin], the IC50 on PonA1 (Rv0050) was found to be 25.1 ± 2.5 µM; on DacB1 (Rv3330), 15.6 ± 1.2 µM; at DacB2 (Rv2911) it was 8.1 ± 2.4 µM.
`C[C@@H](O)[C@H]1C(=O)N2C(C(=O)O)=C([C@H]3CCCO3)S[C@H]12` [Faropenem]: the values for the IC50 at Rv1730c and at PonA1 (Rv0050) were 89.8 ± 12.3 µM and 27.9 ± 3.5 µM, respectively.
Consider `C[C@@H](O)[C@H]1C(=O)N2C(C(=O)O)=C(SCCN=CN)C[C@H]12` [Imipenem], for which the IC50 on PonA2 (Rv3682) is 3 ± 0.6 µM; at DacB1 (Rv3330), 4.5 ± 1.4 µM; at DacB2 (Rv2911), 11.1 ± 3.2 µM.
With `C[C@@H](O)[C@H]1C(=O)N2C(C(=O)O)=C(S[C@@H]3CN[C@H](C(=O)N(C)C)C3)[C@H](C)[C@H]12` [Meropenem], the IC50 at DacB (Rv3627c) is 1.5 ± 0.2 µM; at Rv1730c it was 838 ± 103 µM; at PbpB (Rv2163c), 4.1 ± 0.2 µM.
`COc1cccc(OC)c1C(=O)N[C@@H]1C(=O)N2[C@@H]1SC(C)(C)[C@@H]2C(=O)O` [Methicillin]: at PbpA (Rv0016c), the IC50 was 11.6 ± 2.6 µM.

The record behind these values is paper PMC8865919, “Penicillin Binding Proteins and β-Lactamases of Mycobacterium tuberculosis: Reexamination of the Historical Paradigm” (mSphere, 2022).
